According to PubChem BioAssay (NCI):
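Five concentrations, 48 hours, 96-well plates. GI50 is the concentration that inhibits growth by half. The concentration for full growth arrest is given as TGI.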

Legend:
Assay in all cases: NCI anticancer screen, dose series, 48 h
[1] = test system: 786-0 renal
[2] = test system: A498 renal
[3] = test system: A549 NSCLC
[4] = test system: ACHN renal
[5] = test system: BT-549 breast
[6] = test system: CAKI-1 renal
[7] = test system: CCRF-CEM leukemia
[8] = test system: DU-145 prostate
[9] = test system: EKVX NSCLC
[10] = test system: HCC-2998 colon
[11] = test system: HCT-116 colon
[12] = test system: HCT-15 colon
[13] = test system: HL-60(TB) leukemia
[14] = test system: HOP-62 NSCLC
[15] = test system: HOP-92 NSCLC
[16] = test system: HS 578T breast
[17] = test system: K-562 leukemia
[18] = test system: LOX IMVI melanoma
[19] = test system: M14 melanoma
[20] = test system: MALME-3M melanoma
[21] = test system: MDA-MB-231 breast
[22] = test system: MDA-MB-435
[23] = test system: MOLT-4 leukemia
[24] = test system: NCI-H226 lung
[25] = test system: NCI-H23 lung
[26] = test system: NCI-H460 lung
[27] = test system: NCI/ADR-RES ovarian
[28] = test system: OVCAR-3 ovarian
[29] = test system: OVCAR-4 ovarian
[30] = test system: OVCAR-5 ovarian
[31] = test system: OVCAR-8 ovarian
[32] = test system: PC-3 prostate
[33] = test system: RPMI-8226 leukemia
[34] = test system: RXF 393 renal
[35] = test system: SF-268 CNS
[36] = test system: SF-295 CNS
[37] = test system: SF-539 CNS
[38] = test system: SK-MEL-2 melanoma
[39] = test system: SK-MEL-28 melanoma
[40] = test system: SK-MEL-5 melanoma
[41] = test system: SK-OV-3 ovarian
[42] = test system: SN12C renal
[43] = test system: SNB-19 CNS
[44] = test system: SNB-75 CNS
[45] = test system: SW-620 colon
[46] = test system: T-47D breast
[47] = test system: TK-10 renal
[48] = test system: U251 CNS
[49] = test system: UACC-257 melanoma
[50] = test system: UACC-62 melanoma
[51] = test system: UO-31 renal

## CCCCSSC(=S)N(CC)CC
[1]
  GI50: > 100 µM
  TGI: > 100 µM
[2]
  GI50: > 100 µM
  TGI: > 100 µM
[3]
  GI50: > 100 µM
  TGI: > 100 µM
[4]
  GI50: 46.9 µM
  TGI: > 100 µM
[5]
  GI50: 26.1 µM
  TGI: 75.9 µM
[6]
  GI50: 18.3 µM
  TGI: 54.5 µM
[7]
  GI50: 18.4 µM
  TGI: > 100 µM
[8]
  GI50: 53.9 µM
  TGI: > 100 µM
[9]
  GI50: > 100 µM
  TGI: > 100 µM
[10]
  GI50: > 100 µM
  TGI: > 100 µM
[11]
  GI50: 19 µM
  TGI: 37 µM
[12]
  GI50: 73.6 µM
  TGI: > 100 µM
[13]
  GI50: 12.4 µM
  TGI: 69.2 µM
[14]
  GI50: > 100 µM
  TGI: > 100 µM
[15]
  GI50: 26.9 µM
  TGI: > 100 µM
[16]
  GI50: 38.6 µM
  TGI: > 100 µM
[17]
  GI50: 17.5 µM
  TGI: 40.1 µM
[18]
  GI50: 20.6 µM
  TGI: 48.8 µM
[19]
  GI50: 25.7 µM
  TGI: 87 µM
[20]
  GI50: 32.4 µM
  TGI: > 100 µM
[21]
  GI50: 32.4 µM
  TGI: > 100 µM
[22]
  GI50: 33.9 µM
  TGI: > 100 µM
[23]
  GI50: 20.2 µM
  TGI: 54.9 µM
[24]
  GI50: > 100 µM
  TGI: > 100 µM
[25]
  GI50: > 100 µM
  TGI: > 100 µM
[26]
  GI50: 25.4 µM
  TGI: > 100 µM
[27]
  GI50: 34.3 µM
  TGI: > 100 µM
[28]
  GI50: 20.4 µM
  TGI: 42.6 µM
[29]
  GI50: 16.9 µM
  TGI: 32.3 µM
[30]
  GI50: 36.4 µM
  TGI: > 100 µM
[31]
  GI50: 34.3 µM
  TGI: > 100 µM
[32]
  GI50: 34.3 µM
  TGI: > 100 µM
[33]
  GI50: 17.9 µM
  TGI: 40.1 µM
[34]
  GI50: 23.3 µM
  TGI: 49.4 µM
[35]
  GI50: 41.7 µM
  TGI: > 100 µM
[36]
  GI50: 37.1 µM
  TGI: > 100 µM
[37]
  GI50: 21.1 µM
  TGI: 56.5 µM
[38]
  GI50: 57.7 µM
  TGI: > 100 µM
[39]
  GI50: 23.4 µM
  TGI: 78.3 µM
[40]
  GI50: 21 µM
  TGI: > 100 µM
[41]
  GI50: > 100 µM
  TGI: > 100 µM
[42]
  GI50: 35.7 µM
  TGI: > 100 µM
[43]
  GI50: > 100 µM
  TGI: > 100 µM
[44]
  GI50: 55.5 µM
  TGI: > 100 µM
[45]
  GI50: 16.7 µM
  TGI: 32.9 µM
[46]
  GI50: 90.5 µM
  TGI: > 100 µM
[47]
  GI50: 41.2 µM
  TGI: > 100 µM
[48]
  GI50: 28.8 µM
  TGI: > 100 µM
[49]
  GI50: 79.5 µM
  TGI: > 100 µM
[50]
  GI50: 34.2 µM
  TGI: > 100 µM
[51]
  GI50: 20.9 µM
  TGI: 47.6 µM
